Legend:
OATP1B1 = target: T1, OATP1B1 (Homo sapiens, UniProt Q9Y6L6); test: Uptake into stable transfected OATP1B1 HEK 293 cells; assay type: cell-based; details: OATP1B1-HEK 293 cell uptake with Rifampicine
T1 sequence (Q9Y6L6 1-691): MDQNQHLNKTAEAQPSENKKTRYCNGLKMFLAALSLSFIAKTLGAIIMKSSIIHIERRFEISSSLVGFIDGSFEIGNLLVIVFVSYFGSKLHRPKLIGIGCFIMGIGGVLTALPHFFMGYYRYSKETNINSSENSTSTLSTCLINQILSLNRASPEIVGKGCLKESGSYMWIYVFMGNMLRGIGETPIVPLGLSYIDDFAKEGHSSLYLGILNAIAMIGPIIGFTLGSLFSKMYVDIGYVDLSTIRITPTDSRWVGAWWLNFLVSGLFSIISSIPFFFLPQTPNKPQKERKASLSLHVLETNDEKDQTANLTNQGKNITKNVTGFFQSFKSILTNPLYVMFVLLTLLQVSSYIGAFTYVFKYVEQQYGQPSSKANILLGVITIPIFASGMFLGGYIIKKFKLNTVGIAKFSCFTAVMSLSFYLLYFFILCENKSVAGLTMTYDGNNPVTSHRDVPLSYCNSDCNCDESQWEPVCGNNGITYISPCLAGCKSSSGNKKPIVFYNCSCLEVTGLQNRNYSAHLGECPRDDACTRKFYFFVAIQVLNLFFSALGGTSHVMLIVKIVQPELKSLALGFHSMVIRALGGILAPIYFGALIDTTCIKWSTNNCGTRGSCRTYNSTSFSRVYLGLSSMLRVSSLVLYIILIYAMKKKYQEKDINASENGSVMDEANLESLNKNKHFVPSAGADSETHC

[1] = system: freshly isolated rat hepatocytes; test: Uptake into freshly isolated rat hepatocytes; details: rat hepatocyte uptake with OATP1B1/1B3 inhibitor Rifampicine, test item and inhibitor each 100 µM
Protocol: The rat hepatocytes were incubated (2.5 ·10^5 cells/well) for 2.5 to 4h in collagen coated 24-well plates (Fa. Beckton Dickinson Biocoat, cell environments, Collagen I Cellware) in Williams E-medium (Fa. Sigma W1878) in an incubator (37°C, 5% CO2 and 95% oxygen). After incubation the adherent hepatocytes were washed once with 37°C Hepes carbonate transport buffer (500 µL/well). The test items and RC1 were prepared from stock solutions (180 to 500 mM concentration) in Hepes carbonate transport buffer at pH 7.4 to reach a final concentration of 100 µmοl Gd/L. The specific uptake of the test item or RC1 into rat hepatocytes via OATP1 B1 and OATP1 B3 was challenged using a known OATP1B1/1B3 inhibitor (Rifampicine, Fa. Sigma R3501, test item and inhibitor 1:1 each 100 µM final concentration). The prepared rat hepatocyte plates were incubated with test solutions (500 µL/well) at 37°C for 10 min using a thermoshaker (Fa. Grant Bio, PHMP). Triplicates were performed for each test item. After incubating the cells were washed once with cold PBS buffer (Fa. Gibco, Dulbeccos PBS (+)). After washing the intact hepatocytes were lysed by addition of 500 µL cold 0.01 % Triton-X 100 in Millipore water for 1h. […] After 1h 500 µL of 10 nM Terbium ICP-MS standard was added in 2% nitric acid and 0.01% Triton 100 before the Gadolinium concentrations in the lysate were measured using ICP-MS (Agilent 8900, singleQuad, integr. Time 0.3 s, no gas, 5 replicates, Gd m/z 157, Tb m/z 159). As a reference standard RC1 is used in the same well plate. The hepatocyte uptake of the test compound is calculated relative to RC1 (resulting in the unit % of RC1).

[2] = No-observed-adverse-effect level (NOAEL), intravenous bolus; details: mice, intravenous bolus via tail vein, dose levels up to 2.5 mmol Gd/kg bw
OATP1B3 = target: T2, OATP1B3 (Homo sapiens, UniProt Q9NPD5); test: Uptake into stable transfected OATP1B3 HEK 293 cells; assay type: cell-based; details: OATP1B3-HEK 293 cell uptake with Rifampicine
T2 sequence (Q9NPD5 1-702): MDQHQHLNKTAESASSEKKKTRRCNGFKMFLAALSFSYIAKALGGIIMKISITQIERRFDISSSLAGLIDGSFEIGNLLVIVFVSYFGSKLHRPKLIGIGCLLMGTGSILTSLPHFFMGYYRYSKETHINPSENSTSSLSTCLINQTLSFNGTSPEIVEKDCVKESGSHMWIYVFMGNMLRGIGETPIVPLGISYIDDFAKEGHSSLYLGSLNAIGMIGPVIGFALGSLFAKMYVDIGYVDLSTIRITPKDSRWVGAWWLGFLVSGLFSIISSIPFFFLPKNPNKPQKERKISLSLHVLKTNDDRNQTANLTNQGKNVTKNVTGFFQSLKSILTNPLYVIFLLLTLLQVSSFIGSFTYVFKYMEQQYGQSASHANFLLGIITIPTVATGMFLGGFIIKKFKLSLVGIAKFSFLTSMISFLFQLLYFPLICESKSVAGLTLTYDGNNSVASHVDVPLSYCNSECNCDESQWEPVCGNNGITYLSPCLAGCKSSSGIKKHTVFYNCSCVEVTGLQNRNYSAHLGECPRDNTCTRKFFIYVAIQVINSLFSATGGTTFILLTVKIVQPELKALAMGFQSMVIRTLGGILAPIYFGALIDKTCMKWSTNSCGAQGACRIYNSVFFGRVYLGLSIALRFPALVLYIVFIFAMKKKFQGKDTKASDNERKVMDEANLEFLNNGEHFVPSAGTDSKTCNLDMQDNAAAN

[3] = Relaxivity measurements at 1.41 T in water and human plasma; assay type: physicochemical; details: 37°C, normalized to Gd
Protocol: Relaxivity measurements at 1.41 T were performed using a MiniSpec mq60 spectrometer (Bruker Analytik, Karlsruhe, Germany) operating at a resonance frequency of 60 MHz and a temperature of 37°C. The T1 relaxation times were determined using the standard inversion recovery (IR) method with a fixed relaxation delay of at least 5 × T1. The variable inversion time (TI) was calculated automatically by the standard software of the MiniSpec mq60 (8 steps). The T2 measurements were performed by using a Carr-Purcell-Meiboom-Gill (CPMG) pulse sequence, applying a relaxation delay of at least 5 × T1.
Each relaxivity measurement was performed using three different Gd concentrations (3 concentrations between 0.05 and 2 mM). The T1 and T2 relaxation times of the example compounds 1 to 10 were measured in different media for example in water and human plasma. Human plasma preparation: For each experiment fresh blood was taken from a volunteer using 10 mL citrate-tubes (Sarstedt S-Monovette 02.1067.001, 10 mL, Citrate). The 10 mL citrate-tubes were carefully inverted 10 times to mix blood and anticoagulant and centrifuged for 15min at 1811 g at RT (Eppendorf, Centrifuge 5810R).
The relaxivities ri (where i=1, 2) were calculated based on the measured relaxation rates Ri in water and plasma: ri = (Ri−Ri(0))/CGd [formula] where Ri(0) represent the relaxation rate of the respective solvent and CGd the concentration of the compound normalized to the Gadolinium. The Gadolinium concentrations of the investigated solutions were verified by Inductively Coupled Plasma Mass Spectrometry (ICP-MS Agilent 7500a, Waldbronn, Germany). Table 3: Relaxivities of investigated compounds in water and human plasma at 1.41 T and relaxivities of Reference compounds 1-3 (RC1-RC3) at 1.5 T in water and bovine plasma. All values are measured at 37°C and normalized to Gd and given in L mmol-1 s-1.

[4] = Complex stability (transmetallation with Zn2+, proton relaxometry); assay type: physicochemical; details: 72 hours, 2.5 mM Zn2+, 26 mM phosphate buffer, 37°C, pH 7.4; 1.41 T
Protocol: The used method is described elsewhere (Laurent S et al., Stability of MRI paramagnetic contrast media: a proton relaxometric protocol for transmetallation assessment. Invest Radiol. 2001 Feb;36(2):115-22). In brief: A solution containing 2.5 mmol/L of test compound and 2.5 mmol/L ZnCl2 in 26 mM phosphate buffer (KH2PO4 Merck; 1.09439.1000, #HC748513, pH 7,00), was incubated at 37°C over a period of at least 3 days. If test compounds are instable under these conditions, transmetallation during this test would lead to the formation of the Zn^2+ complex of the test item, while Gd^3+ is released and precipitated as highly insoluble GdPO4.
After 3d of incubation T1 relaxation time was observed. […] Table 2: Transmetallation stability [%] of paramagnetic contrast agents over 72 hours (2.5 mM Zn2+, 26 mM phosphate buffer, 37°C, pH 7.4).

[5] = Water solubility in aqueous buffer; assay type: physicochemical; details: aqueous buffer 10 mM Tris-HCl, pH 7.4, 20°C; Gd by ICP-MS
Protocol: The exploratory water solubility of the compounds is determined at room temperature (20°C) in 0.5 mL buffer solution (10 mM Tris-HCI, pH 7.4) in the microcentrifuge tubes (Eppendorf, 2.0 mL safe-lock caps). The solid compounds were added stepwise to the buffer solution. More substance is added once all the suspended material is dissolved until an equilibrium between undissolved and dissolved substance is reached. The suspension was mixed using a shaker (Heidolph Reax 2000) and treated 5 min in an ultrasound bath (Bandelin, Sonorex Super RK255H). The Gadolinium concentration of the test substance in the clear solution is measured by ICP-MS. Table 1: Solubilities of compounds in aqueous buffer at 20°C (pH 7.4).

SMILES: CCOc1ccc(CC2CN(CC(=O)[O-])CCN(CC(=O)[O-])CCN(CC(=O)O)CCN2CC(=O)[O-])cc1.[Gd+3] (centres unmarked) [Example 7, Gadolinium-2,2',2"-[10-(carboxymethyl)-2-(4-ethoxybenzyl)-1,4,7,10-tetraazacyclododecane-1,4,7-triyl]triacetate]
- Inhibition Rifampicine (OATP1B1): 78 % inhibition
- Inhibition Rifampicine [1]: 96 % inhibition
- NOAEL [2]: 1.50 mmol Gd/kg bw
- Inhibition Rifampicine (OATP1B3): 95 % inhibition
- r1 human plasma ([3]; human plasma): 6.2 L/mmol/s
- r1 water ([3]; water): 4.5 L/mmol/s
- Stability (transmetallation stability, T1 relaxation rates R1n/R10) [4]: 98%
- Solubility [5]: > 403 mM

From EP4335840A1, “NEW CONTRAST AGENTS FOR USE IN DIAGNOSTIC IMAGING” (priority 2022, dated 2024)
